One data set has as its target T1, FABP4 (Homo sapiens, UniProt P15090).
T1 construct: purchased Cayman Chemical
Briefly: FABP4 binding, commercially available kit (Cayman Chemical). As to conditions: commercial kit. As to the method: (§1) Purified FABPs were incubated with 11-(dansylamino)undecanoic acid (DAUDA) (FABP3, FABP5) or 8-anilino-1-naphthalenesulfonic acid (ANS) (FABP7) in the presence or absence of FABP inhibitors (.01–200 μM) in the binding assay buffer. FABP4 binding was assessed using a commercially available kit (Cayman Chemical, Ann Arbor). In all cases, arachidonic acid (10 μM) was included to account for maximal probe displacement. Loss of fluorescence intensity was monitored with an F5 Filtermax Multi-Mode Microplate Reader (Molecular Devices, Sunnyvale) using the following excitation and emission wavelengths (DAUDA: ex./em.= 360/535 nm; ANS: ex./em. = 360/465 nm). Following background subtraction, the fluorescence intensity values were normalised and analyzed via a one-site binding model using the GraphPadPrism (version 9.2). Ki values were determined using the following equation: Ki= IC50/(1 + ([Probe]/Kd).

Data set [1] has as its system oxaliplatin-induced mechanical allodynia. Put plainly: 7-day treatment of established OIPN, paw withdrawal threshold. The format is in vivo, male Sprague Dawley rats. Particulars: 25 mg/kg BID PO 7 days, across Days 7 and 14, P < .05. The protocol: (§2) Male Sprague Dawley rats (150–210 g) were housed in groups of 4 in intra-ventilated Perspex home cages. Humidity, temperature (21 ± 1 °C), and lighting (light-dark cycle of 12:12 hours) were controlled and maintained in the home cages, with food and water available ad libitum. Rats acclimatised to the home cages for at least 1 week. All experiments were carried out according to the Animals (Scientific Procedures) Act, 1986 (U.K. Government Home Office). The study was performed under the Home Office project licence number PP0847012. OIPN was established with a single dose of OXA (10 mg/kg, IP).
(§3) Body weight was monitored throughout the study, and terminal plasma and whole brain samples were taken for bioanalysis.
(§4) Tactile allodynia (primary outcome measure) was assessed using paw withdrawal threshold (PWT), a measure of pain sensitivity. PWT was evaluated using calibrated von-Frey monofilaments (Touch-Test Sensory Evaluator; Scientific Marketing Associates) applied to the plantar surface of the left hind paw. PWT was determined by increasing and decreasing stimulus intensity and estimated using Dixon’s up-down method.[38],[39]
(§5) To acquire baseline readings, pain behaviour was assessed on 3 consecutive days (Days −3, −2, −1). […] NPB expressed as a percentage change from HBL was calculated as follows (HBL-NPB)/HBL*100. […]

In the next data set the target is FABP3 (Homo sapiens, UniProt P05413). Briefly: Fluorescence displacement binding assay (DAUDA probe). As to the method:
as §1

Data set [2] is described as follows: Terminal plasma and brain concentrations, OIPN treatment study. The format is in vivo. Particulars: after 7 days dosing 25 mg/kg BID.
From the text: as §3

Data set [3] can be described thus: Plasma concentration in PKPD time course (established OIPN). The format is in vivo, male Sprague Dawley rats. As to conditions: OIPN rats, single 100 mg/kg PO. As to the method: The doses were based on previous studies that used these antagonists in animal models of CIPN.[33]–[37]
Quantitative bioanalysis by LC-MS/MS of plasma and spinal cord levels of ART26.12 was carried out by a commercial supplier (Sygnature Discovery, Nottingham, UK).

Data set [4] relates to CCK1, CCK2, δ (DOP), cathepsin G. Briefly: Subsequent functional assessment of secondary pharmacology hits. The format is biochemical. The source says: Findings were considered significant if ≥50% inhibition of ligand binding or ≥50% stimulation/inhibition were shown in biochemical assays. Those receptors with values ≥50% were further evaluated for binding and functional half-maximal inhibitory concentrations (IC50).

In the next data set the target is FABP7 (Homo sapiens, UniProt O15540). Briefly: Fluorescence displacement binding assay (ANS probe). The protocol: as §1
Data set [5] has as its system oxaliplatin-induced thermal hyperalgesia. Put plainly: Prevention of OIPN, cold plate latency. The format is in vivo, male Sprague Dawley rats. As to conditions: 25 mg/kg BID, P < .001. As to the method: as §2
Pain measurements were made on Days 5/6 (when neuropathy has normally developed) and at the end of the study. […] Terminal plasma samples were taken for bioanalysis and proteomics (Somalogic). […]
Thermal hyperalgesia was assessed using a cold plate (Bioseb, France) set at a fixed temperature of 15 °C. Latency to the first escape behaviour from the plate was measured indicating discomfort to the thermal stimulation. […]
as §5

The nature of another data set: in vivo. More on the design: species or system Wistar Han rats. Particulars: both sexes, Wistar Han, rat, po, 500 mg/kg. As to the method:
Twenty-nine male and 29 female Wistar Han rats were assigned to 7 groups (4 main and 3 toxicokinetic (TK) groups), with 5 rats/sex/group in the main groups and […] in TK groups. Dose formulations were administered twice daily by oral gavage at 100, 300, and 1,000 mg/kg/day (50, 150, and 500 mg/kg/dose) for 14 consecutive days, with a vehicle control group dosed in the same manner. Toxicity was assessed based on clinical signs, daily body weights, food consumption, organ weights, clinical, gross, and anatomic pathology.

For data set [6], the system named is oxaliplatin-induced mechanical allodynia. Put plainly: Prevention of OIPN, paw withdrawal threshold. The format is in vivo, male Sprague Dawley rats. The protocol:
as §2
Pain measurements were made on Days 5/6 (when neuropathy has normally developed) and at the end of the study. […] Terminal plasma samples were taken for bioanalysis and proteomics (Somalogic). Brain regions involved in pain processing, that is, prefrontal cortex (PFC), periaqueductal grey (PAG), whole spinal cords (SC), and L4-L6 dorsal root ganglia, were collected for lipidomic and genomic (Genewiz, China) analyses.
as §4
To acquire baseline readings, pain behaviour was assessed on 3 consecutive days (Days −3, −2, −1). The mean of Day −2 and Day −1 was considered the healthy baseline (HBL) prior to OIPN induction. On Days 5 and 6 after OXA injection, thresholds were reassessed. The mean of Days 5 and 6 was considered the neuropathic baseline (NPB). Animals were then ranked and randomised (based on a Latin square design) to treatment groups according to the percentage change of the mean thresholds observed in the NPB compared to the HBL. NPB expressed as a percentage change from HBL was calculated as follows (HBL-NPB)/HBL*100. All behavioural assessment was done by an experimenter blinded to the identity of the treatment. Separate people were responsible for dosing and assessment/data analysis.

We go through one compound from paper PMC12993615 (The journal of pain, 2024).

Each structure is given as a SMILES string.

Sequence of FABP3 (P05413 whole entry, species assumed): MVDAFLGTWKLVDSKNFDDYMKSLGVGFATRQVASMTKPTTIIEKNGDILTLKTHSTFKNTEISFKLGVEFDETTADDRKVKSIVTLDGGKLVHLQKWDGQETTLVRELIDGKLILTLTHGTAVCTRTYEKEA
T1 sequence (P15090 whole entry, species assumed): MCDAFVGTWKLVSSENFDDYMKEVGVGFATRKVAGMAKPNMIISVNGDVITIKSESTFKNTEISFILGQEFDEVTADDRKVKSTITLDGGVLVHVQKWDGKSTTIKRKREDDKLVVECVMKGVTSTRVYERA
Sequence of FABP7 (O15540 whole entry, species assumed): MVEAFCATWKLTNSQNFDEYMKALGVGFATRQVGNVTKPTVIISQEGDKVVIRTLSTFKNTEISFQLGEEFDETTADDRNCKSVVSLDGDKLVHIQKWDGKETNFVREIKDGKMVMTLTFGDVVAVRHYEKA

`COc1ccccc1[C@@H]1[C@H](C(=O)O)[C@@H](c2ccccc2OC)[C@H]1C(=O)OC1Cc2ccccc2C1` [ART26.12, (+)–3-Indan-2-yloxycarbonyl-2,4-bis(2-methoxyphenyl)cyclobutanecarboxylic acid]: the Ki (as a rule, the equilibrium dissociation constant of an inhibitor or competing ligand from its target) at FABP4 is above 100 µM; at FABP3, 71.3 ± 2.4 µM; on FABP7, 19 ± 1.81 µM. For the same compound, in data set [1], the “PWT scores versus vehicle” value was “significantly higher PWT scores than vehicle”. Moreover, the “average total plasma concentration” value in data set [2] is given as 6.5 ± .6 µM. Besides, the total brain concentration entry in data set [2] is “.15 ± .02 µM”. For the same compound, the “peak total plasma concentration” value in [3] (mean ± SEM) was 122 ± 13 µM. The Tmax in data set [3] (male, Sprague Dawley, rat, plasma, read-out: time of peak plasma concentration) was around 3 h. Besides, the “functional assessment at the 4 off-targets” value in [4] is “not physiologically relevant”. For the same compound, in [5], the “cold plate latencies on Day 14 versus vehicle” value is reported as “significantly higher cold plate latencies than the vehicle group”. Moreover, the NOAEL (in general, the highest tested level that showed no adverse finding) at 14 days in “in vivo” was 1000 mg/kg/day. The “PWT on Day 5/6 compared to HBL” value is “significantly lower PWTs” in [6] (10 mg/kg BID, P < .001) and “significantly lower PWTs” in data set [6] (25 mg/kg BID, P < .05). Besides, in data set [6] (ART26.12 10 or 25 mg/kg BID groups), the “PWT on Day 14 compared to HBL” value is given as “neither the ART26.12 nor the pregabalin groups showed significant allodynia”.
